For 8 compounds, GI50 and TGI results are on record in PubChem BioAssay (NCI).

Some test systems named below: SNB-19 CNS; SK-MEL-5 melanoma; NCI/ADR-RES ovarian; OVCAR-5 ovarian; SF-268 CNS; NCI-H226 lung; SN12C renal; MDA-MB-231 breast; SK-MEL-28 melanoma; PC-3 prostate.
What all share (experiment): DTP human tumour cell line panel, 48 h

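A five-concentration, 48-hour dose response in 96-well plates underlies each endpoint, interpolated linearly between surrounding concentrations. Here, GI50 denotes the concentration required for 50% inhibition of growth. TGI: concentration producing complete growth inhibition.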 Where only a bound is given, the exact number is not on record here.

For the compound `Cc1sc2c(c1C)C(c1ccc(Cl)cc1)=N[C@@H](CC(=O)Nc1ccc(OCCOCCOCCOCCNc3cccc4c3C(=O)N(C3CCC(=O)NC3=O)C4=O)cc1)c1nnc(C)n1-2` (stereo partly drawn), the GI50 in the experiment with SNB-19 CNS was less than 30.1 nM; in the experiment on SK-MEL-5 melanoma, 195 nM; with NCI/ADR-RES ovarian it was greater than 52800 nM; in the experiment with OVCAR-5 ovarian it was less than 46.5 nM; in the experiment with SF-268 CNS, 254 nM; with NCI-H226 lung, less than 21.2 nM. For the same compound, the GI50 is less than 17.5 nM in the experiment on MDA-MB-231 breast, 16800 nM with SK-MEL-28 melanoma and less than 20 nM with PC-3 prostate. The TGI with SNB-19 CNS was greater than 100000 nM; in the experiment on SK-MEL-5 melanoma it was 27500 nM; with NCI/ADR-RES ovarian, greater than 100000 nM; with OVCAR-5 ovarian it was greater than 100000 nM; in the experiment on SF-268 CNS it was greater than 100000 nM; in the experiment on NCI-H226 lung, greater than 100000 nM. Moreover, the TGI is greater than 100000 nM with SN12C renal, greater than 83800 nM in the experiment on MDA-MB-231 breast, greater than 100000 nM in the experiment on SK-MEL-28 melanoma and greater than 100000 nM with PC-3 prostate.

As to `COc1ccc(-c2cc(-c3ccc(Nc4ccnc5cc(Cl)ccc45)cc3)nc(N3CCOCC3)n2)cc1`, the GI50 in the experiment on SNB-19 CNS is 3860 nM; with NCI/ADR-RES ovarian, 3010 nM; in the experiment on OVCAR-5 ovarian it was greater than 100000 nM; in the experiment on SF-268 CNS it was 6230 nM; with NCI-H226 lung it was greater than 100000 nM; in the experiment with MDA-MB-231 breast, 7520 nM. In addition, the TGI in the experiment on SNB-19 CNS, with NCI/ADR-RES ovarian, in the experiment on OVCAR-5 ovarian, with SF-268 CNS, in the experiment on NCI-H226 lung and in the experiment with MDA-MB-231 breast was greater than 100000 nM each time.

For the compound `COc1cc(C(=O)O[C@H](C(N)=O)[C@]2(C)CO2)c2cccc(C)c2c1`, the GI50 in the experiment on SNB-19 CNS is 1210 nM; in the experiment with SK-MEL-5 melanoma, less than 15.8 nM; in the experiment with NCI/ADR-RES ovarian, 108 nM; in the experiment with OVCAR-5 ovarian, 766 nM; in the experiment on SN12C renal it was less than 10 nM; in the experiment on MDA-MB-231 breast it was 16 nM. Moreover, in the experiment with SK-MEL-28 melanoma, the GI50 was 74.4 nM. Further, the TGI in the experiment with SNB-19 CNS is 5020 nM; with SK-MEL-5 melanoma, 52.2 nM; in the experiment on NCI/ADR-RES ovarian, 507 nM; with OVCAR-5 ovarian, 6010 nM; in the experiment on SF-268 CNS it was greater than 100000 nM; with SN12C renal it was 245 nM. Further, the TGI with MDA-MB-231 breast worked out at 1290 nM; in the experiment on SK-MEL-28 melanoma, 1700 nM; with PC-3 prostate, 2760 nM.

With `C=CCn1c(SCC(=O)Nc2ccc(C(=O)/C=C/c3cc(OC)c(OC)c(OC)c3)cc2)nnc1-c1ccc(OC)cc1`, the GI50 with SNB-19 CNS is 590 nM; in the experiment on SK-MEL-5 melanoma it was 790 nM; with NCI/ADR-RES ovarian, 1450 nM; with SF-268 CNS, 399 nM; in the experiment on NCI-H226 lung it was 445 nM; in the experiment with SN12C renal, 839 nM. The figures for the GI50 in the experiment with MDA-MB-231 breast, with SK-MEL-28 melanoma and in the experiment on PC-3 prostate were 888 nM, 709 nM and 642 nM, respectively. Further, the concentration for total growth inhibition (TGI) in the experiment with SNB-19 CNS was determined as 11800 nM; with SK-MEL-5 melanoma, 2270 nM; with NCI/ADR-RES ovarian it was 17600 nM; with SF-268 CNS, 11200 nM; in the experiment on NCI-H226 lung, 1550 nM; in the experiment on SN12C renal it was 19100 nM. For the same compound, the TGI in the experiment on MDA-MB-231 breast is 29900 nM; in the experiment with SK-MEL-28 melanoma, 73800 nM; with PC-3 prostate, greater than 100000 nM.

As for `CNCCn1c(=O)c2cc(OC)c(OC)cc2c2cnc3cc4c(cc3c21)OCO4`, the GI50 with SNB-19 CNS is less than 10 nM; in the experiment with SK-MEL-5 melanoma it was 10 nM; in the experiment on NCI/ADR-RES ovarian it was 32 nM; in the experiment on OVCAR-5 ovarian, 25.9 nM; with SF-268 CNS it was less than 10 nM; in the experiment with SN12C renal it was less than 10 nM. Moreover, the values for the GI50 in the experiment on MDA-MB-231 breast and in the experiment with PC-3 prostate were 190 nM and 21 nM, respectively. The TGI in the experiment on SNB-19 CNS came out at 2280 nM; with SK-MEL-5 melanoma, 25.4 nM; in the experiment on NCI/ADR-RES ovarian, 1510 nM; in the experiment on OVCAR-5 ovarian, 304 nM; in the experiment on SF-268 CNS, 1780 nM; with SN12C renal, 1250 nM. Moreover, the TGI in the experiment with MDA-MB-231 breast was 1670 nM; in the experiment with PC-3 prostate, 1870 nM.

For `NC(=O)CNc1ccc([As]=[As]c2ccc(NCC(N)=O)cc2)cc1` (stereo not drawn), the GI50 in the experiment with SNB-19 CNS was 4700 nM; in the experiment on SK-MEL-5 melanoma it was 1950 nM; with NCI/ADR-RES ovarian it was 9130 nM; in the experiment on OVCAR-5 ovarian, 4420 nM; in the experiment with SF-268 CNS, 2730 nM; with NCI-H226 lung, 5620 nM. For the same compound, the GI50 is 3270 nM in the experiment on MDA-MB-231 breast, 4010 nM in the experiment with SK-MEL-28 melanoma and 2700 nM in the experiment with PC-3 prostate. Moreover, the TGI in the experiment on SNB-19 CNS is 18200 nM; in the experiment with SK-MEL-5 melanoma, 5170 nM; in the experiment with NCI/ADR-RES ovarian, greater than 100000 nM; in the experiment with OVCAR-5 ovarian it was 20200 nM; in the experiment with SF-268 CNS, 14000 nM; in the experiment on NCI-H226 lung it was 22800 nM. Moreover, the TGI with MDA-MB-231 breast was found to be 21000 nM; with SK-MEL-28 melanoma, 17600 nM; in the experiment on PC-3 prostate, 22700 nM.

For `CCOC(=O)c1sc(NC(=O)COc2cccc(/C=C3\CCc4cc(OC)ccc4C3=O)c2)nc1C`, the GI50 with SNB-19 CNS was 2780 nM; in the experiment with SK-MEL-5 melanoma, 2650 nM; with NCI/ADR-RES ovarian, 4840 nM; with OVCAR-5 ovarian, 13500 nM; in the experiment on SF-268 CNS, 3210 nM; with NCI-H226 lung, 28300 nM. Also, the results for the GI50 in the experiment with SN12C renal, in the experiment with MDA-MB-231 breast and in the experiment with SK-MEL-28 melanoma were 3890 nM, 10100 nM and 18200 nM, respectively. The TGI with SNB-19 CNS is greater than 100000 nM; in the experiment with SK-MEL-5 melanoma, 13300 nM; in the experiment on NCI/ADR-RES ovarian, greater than 100000 nM; in the experiment with OVCAR-5 ovarian, greater than 100000 nM; in the experiment with SF-268 CNS, 12300 nM; in the experiment with NCI-H226 lung it was greater than 100000 nM. Further, the TGI in the experiment with SN12C renal, in the experiment with MDA-MB-231 breast and with SK-MEL-28 melanoma was greater than 100000 nM each time.

Consider `CN(C)CCNc1nc2ccccc2c2c(=O)c3cc(F)ccc3sc12`, for which the GI50 with SK-MEL-5 melanoma was 1700 nM; in the experiment with NCI/ADR-RES ovarian, 1630 nM; with OVCAR-5 ovarian it was 1580 nM; in the experiment on NCI-H226 lung it was 1610 nM; with SN12C renal it was 1570 nM; in the experiment with MDA-MB-231 breast it was 1470 nM. In addition, the values for the GI50 in the experiment with SK-MEL-28 melanoma and with PC-3 prostate were 1790 nM and 1700 nM, respectively. The TGI is 3080 nM with SK-MEL-5 melanoma; 3060 nM in the experiment on NCI/ADR-RES ovarian; 2950 nM with OVCAR-5 ovarian; 3140 nM in the experiment on NCI-H226 lung; 3000 nM in the experiment on SN12C renal; 2880 nM in the experiment on MDA-MB-231 breast. Also, the TGI amounted to 3230 nM in the experiment with SK-MEL-28 melanoma and 3370 nM in the experiment on PC-3 prostate.
